This is an account of results in US20240383954A1, “PEPTIDE INHIBITORS OF INTERLEUKIN-23 RECEPTOR AND THEIR USE TO TREAT INFLAMMATORY DISEASES” (Janssen Biotech, Inc., priority 2020, published 2024).

In this test the target is IL-23R (Homo sapiens, UniProt Q5VWK5). The experiment in a line: cell-based. The following applies: PBMC pSTAT3 IC50 (nM), PBMCs from healthy donors, IL-23 5 ng/mL, 30 minutes, phosphorylated STAT3.

Positions of bridges follow the written chain, without caps; N, C: chain ends. Non-standard residues stand in square brackets, D forms with d. Residues, ends and D or L forms follow the SMILES beside them. *: point of attachment. Trp(7-Me) = Cc1cccc2c(C[C@H](N)C(=O)O)c[nH]c12; dPhe(4-NH2) = Nc1ccc(C[C@@H](N)C(=O)O)cc1; Phe(4-NH2) = Nc1ccc(C[C@H](N)C(=O)O)cc1; 2Nal = N[C@@H](Cc1ccc2ccccc2c1)C(=O)O; AEF = NCCOc1ccc(C[C@H](N)C(=O)O)cc1; αMeF = C[C@](N)(Cc1ccccc1)C(=O)O; Cit = NC(=O)NCCC[C@H](N)C(=O)O; αMeL = CC(C)C[C@](C)(N)C(=O)O; Pen = CC(C)(S)[C@H](N)C(=O)O; Ac5c = NC1(C(=O)O)CCCC1; Thp = NC1(C(=O)O)CCOCC1; Ac3c = NC1(C(=O)O)CC1; X2 = c1c[nH]c(CN*)n1
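Further: cryopreserved PBMCs stimulated at 37 °C in 5% CO2, then lysed, with phosphorylated STAT3 quantified in lysates using a phospho-STAT panel kit.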

IL-23R, sequence (Q5VWK5 24-629): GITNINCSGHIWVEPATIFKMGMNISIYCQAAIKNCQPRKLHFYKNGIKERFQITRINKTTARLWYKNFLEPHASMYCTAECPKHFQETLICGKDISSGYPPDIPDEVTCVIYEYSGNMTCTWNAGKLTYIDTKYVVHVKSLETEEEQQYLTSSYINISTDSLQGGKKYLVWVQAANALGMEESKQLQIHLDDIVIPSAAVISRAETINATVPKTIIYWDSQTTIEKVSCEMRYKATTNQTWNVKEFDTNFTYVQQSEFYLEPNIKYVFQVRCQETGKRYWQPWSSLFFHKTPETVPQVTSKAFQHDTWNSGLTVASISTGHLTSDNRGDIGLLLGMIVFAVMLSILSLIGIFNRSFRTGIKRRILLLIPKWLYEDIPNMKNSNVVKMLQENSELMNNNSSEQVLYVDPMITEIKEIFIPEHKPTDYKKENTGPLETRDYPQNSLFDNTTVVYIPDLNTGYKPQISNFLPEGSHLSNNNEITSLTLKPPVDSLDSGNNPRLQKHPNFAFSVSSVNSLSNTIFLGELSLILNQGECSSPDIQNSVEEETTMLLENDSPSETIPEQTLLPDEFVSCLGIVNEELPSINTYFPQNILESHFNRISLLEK
Procedure: Cryopreserved peripheral blood mononuclear cells (PBMCs) from healthy donors were thawed and washed twice in ImmunoCult-XF T cell expansion medium (XF-TCEM) supplemented with CTL anti-aggregate wash. […] The cells were stimulated with cytokine for 30 minutes at 37° C. in 5% CO2, transferred onto ice for 10 minutes, and lysed. Cell lysates were stored at −80° C. until phosphorylated STAT3 was measured using the phospho-STAT panel kit (Meso Scale Discovery, K15202D).

Broadly, the IC50 is the concentration that gives 50% inhibition. Low readings indicate inhibition by little substance, high ones a need for much substance. On to `CC(=O)NCCCC[C@H](NC(=O)[C@](C)(CC(C)C)NC(=O)[C@H](Cc1ccc2ccccc2c1)NC(=O)[C@H](Cc1ccc(OCCN)cc1)NC(=O)[C@H]1NC(=O)[C@H](CCCNC(N)=O)NC(=O)[C@H](Cc2c[nH]c3c(C)cccc23)NC(=O)[C@H]([C@@H](C)O)NC(=O)[C@H](CC(N)=O)NC(=O)[C@@H](NC(C)=O)C(C)(C)SSC1(C)C)C(=O)N[C@@H](CC(N)=O)C(=O)N[C@@](C)(Cc1ccccc1)C(N)=O` [Compound 104, Ac-[Pen]-N-T-[W(7-Me)]-[Cit]-[Pen]-Phe[4-(2-aminoethoxy)]-[2-Nal]-[aMeLeu]-[Lys(Ac)]-N-[a-MePhe]-NH2] (Ac-[Pen]NT[Trp(7-Me)][Cit][Pen][AEF][2Nal][αMeL]K(Ac)N[αMeF]-NH2; disulfide 1-6), for which the IC50 worked out at 8.2 nM.

In turn, `CC(=O)N[C@H](CCCNC(=N)N)C(=O)N[C@@H]1C(=O)N[C@@H](CC(N)=O)C(=O)N[C@@H]([C@@H](C)O)C(=O)N[C@@H](Cc2c[nH]c3c(C)cccc23)C(=O)N[C@@H](CCC(N)=O)C(=O)N[C@H](C(=O)N[C@@H](Cc2ccc(OCCN)cc2)C(=O)N[C@@H](Cc2ccc3ccccc3c2)C(=O)NC2(C(=O)N[C@@H](CCC(=O)O)C(=O)N[C@@H](CC(N)=O)C(=O)N[C@@](C)(Cc3ccccc3)C(N)=O)CCCC2)C(C)(C)SSC1(C)C` [Compound 93, Ac-[(D)Arg]-[Pen]-N-T-[W(7-Me)]-Q-[Pen]-Phe[4-(2-aminoethoxy)]-[2-Nal]-[Acvc]-E-N-[a-MePhe]-NH2] (Ac-[dR][Pen]NT[Trp(7-Me)]Q[Pen][AEF][2Nal][Ac5c]EN[αMeF]-NH2; disulfide 2-7) had an IC50 of 4.6 nM.

In turn, `CC(=O)N[C@H](CCCNC(=N)N)C(=O)N[C@@H]1C(=O)N[C@@H](CCC(N)=O)C(=O)N[C@@H]([C@@H](C)O)C(=O)N[C@@H](Cc2c[nH]c3ccccc23)C(=O)N[C@@H](CCC(N)=O)C(=O)N[C@H](C(=O)N[C@@H](Cc2ccc(OCCN)cc2)C(=O)N[C@@H](Cc2ccc3ccccc3c2)C(=O)NC2(C(=O)N[C@@H](CCC(=O)O)C(=O)N[C@@H](CC(N)=O)C(=O)N[C@@H](CC(=O)NCc3ncc[nH]3)C(N)=O)CCOCC2)C(C)(C)SSC1(C)C` [Compound 137, Ac-[(D)Arg]-[Pen]-Q-T-W-Q-[Pen]-Phe[4-(2-aminoethoxy)]-[2-Nal]-[THP]-E-N-[(N-(imidazol-2-yl)methyl)Asn]-NH2] (Ac-[dR][Pen]QTWQ[Pen][AEF][2Nal][Thp]END(X2)-NH2; disulfide 2-7) had an IC50 of 14 nM.

As to `CC(=O)NCCCC[C@@H]1NC(=O)[C@H](Cc2c[nH]c3c(C)cccc23)NC(=O)[C@H]([C@@H](C)O)NC(=O)[C@H](CC(N)=O)NC(=O)[C@@H](NC(=O)[C@@H](CCCNC(=N)N)NC(C)=O)C(C)(C)SSC(C)(C)[C@@H](C(=O)N[C@@H](Cc2ccc(OCCN)cc2)C(=O)N[C@@H](Cc2ccc3ccccc3c2)C(=O)NC2(C(=O)N[C@@H](CCC(=O)O)C(=O)N[C@@H](CC(N)=O)C(=O)N[C@@H](Cc3c[nH]cn3)C(=O)N[C@H](Cc3ccc(N)cc3)C(N)=O)CC2)NC1=O` [Compound 315, MeCO-r-Pen-N-T-7MeW-K(Ac)-Pen-AEF-2Nal-Acpx-E-N-H-4AmDPhe---CONH2] (Ac-[dR][Pen]NT[Trp(7-Me)]K(Ac)[Pen][AEF][2Nal][Ac3c]ENH[dPhe(4-NH2)]-NH2; disulfide 2-7), the IC50 was found to be 2 nM.

As for `CC(=O)NCCCC[C@@H]1NC(=O)[C@H](Cc2c[nH]c3c(C)cccc23)NC(=O)[C@H]([C@@H](C)O)NC(=O)[C@H](CC(N)=O)NC(=O)[C@@H](NC(C)=O)CSSC[C@@](C)(C(=O)N[C@@H](Cc2ccc(OCCN)cc2)C(=O)N[C@@H](Cc2ccc3ccccc3c2)C(=O)N[C@@](C)(CCCCN)C(=O)N[C@@H](CCCCNC(C)=O)C(=O)N[C@@H](CC(N)=O)C(=O)NC2(C(N)=O)CCOCC2)NC1=O` [Compound 117, Ac-[Cys]-N-T-[W(7-Me)]-[Lys(Ac)]-[aMeCys]-Phe[4-(2-aminoethoxy)]-[2-Nal]-[a-MeLys]-[Lys(Ac)]-N-[THP]-NH2], inhibition was half-maximal at 7.1 nM (IC50).

In turn, `CC(=O)N[C@H](CCCNC(=N)N)C(=O)N[C@H]1CCSC[C@@H](C(=O)N[C@@H](Cc2ccc(OCCN)cc2)C(=O)N[C@@H](Cc2ccc3ccccc3c2)C(=O)NC2(C(=O)N[C@@](C)(CCC(=O)O)C(=O)N[C@@H](CC(N)=O)C(=O)N[C@@H](Cc3cc(F)cc(F)c3)C(N)=O)CCOCC2)NC(=O)[C@H](CCC(N)=O)NC(=O)[C@H](Cc2c[nH]c3ccccc23)NC(=O)[C@H]([C@@H](C)O)NC(=O)[C@H](CCC(N)=O)NC1=O` [Compound 46, Ac-[(D)Arg]-[Abu]-Q-T-W-Q-[Cys]-Phe[4-(2-aminoethoxy)]-[2-Nal]-[THP]-[aMeGlu]-N-[Phe(3,5-diF)]-NH2] came in with an IC50 of 48 nM.

Compound `CC(=O)NCCCC[C@@H]1NC(=O)[C@H](Cc2c[nH]c3ccccc23)NC(=O)[C@H]([C@@H](C)O)NC(=O)[C@H](CC(N)=O)NC(=O)[C@@H](NC(C)=O)CSSC[C@@](C)(C(=O)N[C@@H](Cc2ccc(OCCN)cc2)C(=O)N[C@@H](Cc2ccc3ccccc3c2)C(=O)N[C@@](C)(CCCCN)C(=O)N[C@@H](CCCCNC(C)=O)C(=O)N[C@@H](CC(N)=O)C(=O)N[C@@](C)(Cc2ccccc2)C(N)=O)NC1=O` [Compound 122, Ac-[Cys]-N-T-W-[Lys(Ac)]-[aMeCys]-Phe[4-(2-aminoethoxy)]-[2-Nal]-[a-MeLys]-[Lys(Ac)]-N-[a-MePhe]-NH2] came in with an IC50 of 54 nM.

Consider `CC(=O)NCCCC[C@@H]1NC(=O)[C@H](Cc2c[nH]c3ccccc23)NC(=O)[C@H]([C@@H](C)O)NC(=O)[C@H](CC(N)=O)NC(=O)[C@@H](NC(=O)[C@@H](CCCNC(=N)N)NC(C)=O)C(C)(C)SSC(C)(C)[C@@H](C(=O)N[C@@H](Cc2ccc(OCCN)cc2)C(=O)N[C@@H](Cc2ccc3ccccc3c2)C(=O)NC2(C(=O)N[C@@H](CCC(=O)O)C(=O)N[C@@H](CC(N)=O)C(=O)NC3(C(N)=O)CCOCC3)CCOCC2)NC1=O` [Compound 105, Ac-[(D)Arg]-[Pen]-N-T-W-[Lys(Ac)]-[Pen]-Phe[4-(2-aminoethoxy)]-[2-Nal]-[THP]-E-N-[THP]-NH2] (Ac-[dR][Pen]NTWK(Ac)[Pen][AEF][2Nal][Thp]EN[Thp]-NH2; disulfide 2-7), for which 2.2 nM corresponded to half-maximal inhibition (IC50).

`CC(=O)N[C@H](CCCNC(=N)N)C(=O)N[C@H]1CCSC[C@@H](C(=O)N[C@@H](Cc2ccc(OCCN)cc2)C(=O)N[C@@H](Cc2ccc3ccccc3c2)C(=O)NC2(C(=O)N[C@@H](CCC(=O)O)C(=O)N[C@@H](CC(N)=O)C(=O)N[C@@H](Cc3ccccc3)C(N)=O)CCOCC2)NC(=O)[C@H](CCC(N)=O)NC(=O)[C@H](Cc2c[nH]c3ccccc23)NC(=O)[C@H]([C@@H](C)O)NC(=O)[C@H](CCC(N)=O)NC1=O` [Compound 17, Ac-[(D)Arg]-[Abu]-Q-T-W-Q-[Cys]-Phe[4-(2-aminoethoxy)]-[2-Nal]-[THP]-E-N-F-NH2] returned an IC50 of 3.4 nM.

`CC(=O)N[C@H](CCCNC(=N)N)C(=O)N[C@H]1CCSC[C@@H](C(=O)N[C@@H](Cc2ccc(OCCN)cc2)C(=O)N[C@@H](Cc2ccc3ccccc3c2)C(=O)NC2(C(=O)N[C@@H](CCC(=O)O)C(=O)N[C@@H](CC(N)=O)C(=O)N[C@@](C)(Cc3ccccc3)C(N)=O)CCOCC2)NC(=O)[C@H](CCC(N)=O)NC(=O)[C@H](Cc2c[nH]c3ccccc23)NC(=O)[C@H]([C@@H](C)O)NC(=O)[C@H](CCC(N)=O)NC1=O` [Compound 123, Ac-[(D)Arg]-[Abu]-Q-T-W-Q-[Cys]-Phe[4-(2-aminoethoxy)]-[2-Nal]-[THP]-E-N-[a-MePhe]-NH2] gave a concentration for half-maximal inhibition (IC50) of 11 nM.

`CC(=O)NCCCC[C@@H]1NC(=O)[C@H](Cc2c[nH]c3c(C)cccc23)NC(=O)[C@H]([C@@H](C)O)NC(=O)[C@H](CC(N)=O)NC(=O)[C@@H](NC(C)=O)C(C)(C)SSC(C)(C)[C@@H](C(=O)N[C@@H](Cc2ccc(OCCN)cc2)C(=O)N[C@@H](Cc2ccc3ccccc3c2)C(=O)NC2(C(=O)N[C@@H](CCCCNC(=O)C(F)(F)F)C(=O)N[C@@H](CC(N)=O)C(=O)N[C@@](C)(Cc3ccccc3)C(N)=O)CCOCC2)NC1=O` [Compound 138, Ac-[Pen]-N-T-[W(7-Me)]-[Lys(Ac)]-[Pen]-Phe[4-(2-aminoethoxy)]-[2-Nal]-[THP]-[Lys(COCF3)]-N-[a-MePhe]-NH2] registered an IC50 of 7.6 nM.

The compound `CC(=O)Nc1ccc(C[C@@H]2NC(=O)[C@H](Cc3c[nH]c4c(C)cccc34)NC(=O)[C@H]([C@@H](C)O)NC(=O)[C@H](CC(N)=O)NC(=O)[C@@H](NC(=O)[C@@H](CCCNC(=N)N)NC(C)=O)C(C)(C)SSC(C)(C)[C@@H](C(=O)N[C@@H](Cc3ccc(OCCN)cc3)C(=O)N[C@@H](Cc3ccc4ccccc4c3)C(=O)NC3(C(=O)N[C@@H](CCC(=O)O)C(=O)N[C@@H](CC(N)=O)C(=O)NC4(C(N)=O)CCOCC4)CC3)NC2=O)cc1` [Compound 306, MeCO-r-Pen-N-T-7MeW-Paf(Ac)-Pen-AEF-2Nal-Acpx-E-N-THP---CONH2] (Ac-[dR][Pen]NT[Trp(7-Me)][Phe(4-NH2)](Ac)[Pen][AEF][2Nal][Ac3c]EN[Thp]-NH2; disulfide 2-7) showed an IC50 of 9.6 nM.

For `CC(=O)N[C@H](CCCNC(=N)N)C(=O)N[C@H]1CCSC[C@@H](C(=O)N[C@@H](Cc2ccc(OCCN)cc2)C(=O)N[C@@H](Cc2ccc3ccccc3c2)C(=O)NC2(C(=O)N[C@@](C)(CCC(=O)O)C(=O)N[C@@H](CC(N)=O)C(=O)N[C@@](C)(Cc3ccc(O)cc3)C(N)=O)CCOCC2)NC(=O)[C@H](CCC(N)=O)NC(=O)[C@H](Cc2c[nH]c3ccccc23)NC(=O)[C@H]([C@@H](C)O)NC(=O)[C@H](CCC(N)=O)NC1=O` [Compound 44, Ac-[(D)Arg]-[Abu]-Q-T-W-Q-[Cys]-Phe[4-(2-aminoethoxy)]-[2-Nal]-[THP]-[aMeGlu]-N-[aMeTyr]-NH2], the IC50 was 9.3 nM.

`CC(=O)NCCCC[C@@H]1NC(=O)[C@H](Cc2c[nH]c3ccccc23)NC(=O)[C@H]([C@@H](C)O)NC(=O)[C@H](CC(N)=O)NC(=O)[C@@H](NC(=O)[C@@H](CCCNC(=N)N)NC(C)=O)C(C)(C)SSC(C)(C)[C@@H](C(=O)N[C@@H](Cc2ccc(OCCN)cc2)C(=O)N[C@@H](Cc2ccc3ccccc3c2)C(=O)NC2(C(=O)N[C@@H](CCC(=O)O)C(=O)N[C@@H](CC(N)=O)C(=O)N[C@@](C)(Cc3ccccc3)C(N)=O)CCOCC2)NC1=O` [Compound 106, Ac-[(D)Arg]-[Pen]-N-T-W-[Lys(Ac)]-[Pen]-Phe[4-(2-aminoethoxy)]-[2-Nal]-[THP]-E-N-[a-MePhe]-NH2] (Ac-[dR][Pen]NTWK(Ac)[Pen][AEF][2Nal][Thp]EN[αMeF]-NH2; disulfide 2-7) had an IC50 of 13 nM.
